Laboratory results: ChEMBL document CHEMBL2417472, “Synthesis and biological evaluation of novel benzyl-substituted (S)-phenylalanine derivatives as potent dipeptidyl peptidase 4 inhibitors” (Bioorg Med Chem, 2013)

Key:
[1] = species on record: Rattus norvegicus; experiment: animal or person; details: Sprague-Dawley, po, read-out: INH
[2] = species on record: Rattus norvegicus; experiment: animal or person; details: Sprague-Dawley, po, read-out: INH; remark: listed apart in the source
[3] = species on record: Rattus norvegicus; experiment: animal or person; details: Sprague-Dawley, po, read-out: INH; remark: listed apart in the source
[4] = tested on: Rattus norvegicus; experiment: Antidiabetic activity in po dosed Sprague-Dawley rat assessed as inhibition of glucose excursion administered 30 mins prior glucose challenge measured over 30 to 120 mins post challenge by OGTT; assay type: functional, organism-based

N#C[C@@H]1CCCN1C(=O)[C@@H](N)Cc1ccc(-c2cn(Cc3ccc(F)cc3)nn2)cc1
inhibition in vivo at 10 mg/kg [1]: 28.8% | inhibition in vivo at 3 mg/kg [2]: 21.7% | inhibition in vivo at 1 mg/kg [3]: 20.8% | inhibition [4]: Dose-dependent effect
